In patent publication US20260306644A1, “ANTIBODY RECRUITING MOLECULES FOR THE TREATMENT OF CORONAVIRUS DISEASE-19” (priority 2023, published 2026) one finds EC50 data, which are given here for six molecules.

Where “and” joins values, the source holds several entries; their conditions need not be identical. Equal entries are not always repeated. Bounds are passed on as bounds.

The assay deals with SARS-CoV-2 Spike protein (Severe acute respiratory syndrome coronavirus 2, UniProt P0DTC2). Nature of the assay: Ternary binding of SARS-CoV-2 Spike protein (293T cells expressing Spike-GFP, IgG-AF647, flow cytometry). Format: cell-based. As to conditions: 293T cells expressing Spike-GFP; IgG-AF647 10 μg/ml; repeat values/batches listed separately; read-out: SARS-CoV-2 Ternary binding EC50. As for the experimental part:
293T cells stably expressing SARS-CoV-2 Spike-GFP protein on their surface were incubated with a concentration range of compound for 30 minutes at 37° C.-5% CO2 in Roswell Park Memorial Institute Medium (RPMI)-5% low IgG serum with 10 μg/ml IgG-Alexa Fluor® 647 (AF647). The cells were washed twice using the same medium, resuspended in phosphate-buffered saline (PBS)-1% bovine serum albumin (BSA), and acquired on Attune™ NxT Flow Cytometer. In some embodiments, mean fluorescence intensity of AF647 as well as […] AF647 positive in GFP positive gate are reported as readouts in this assay.
(A flow cytometer gives signals particle by particle.)
Consider `CC[C@H](C)[C@H](NC(=O)[C@H](CC(C)C)NC(=O)[C@H](CC(=O)O)NC(=O)[C@H](CO)NC(=O)[C@@H](NC(=O)[C@H](CCCNC(=N)N)NC(=O)[C@H](CCSC)NC(=O)[C@H](CO)NC(=O)[C@H](C)NC(=O)[C@H](CCC(=O)O)NC(=O)[C@H](C)NC(=O)[C@H](Cc1c[nH]cn1)NC(=O)CNC(=O)[C@H](CC(C)C)NC(=O)[C@H](CCC(=O)O)NC(=O)[C@H](CC(=O)O)NC(=O)[C@H](CC(C)C)NC(=O)[C@H](CC(C)C)NC(=O)[C@H](CCCNC(=N)N)NC(=O)[C@H](CCSC)NC(=O)[C@@H](NC(=O)[C@H](CCC(=O)O)NC(=O)[C@H](Cc1ccc(O)cc1)NC(=O)[C@@H](NC(=O)[C@H](CCCCN)NC(=O)[C@H](CCC(N)=O)NC(=O)[C@H](CC(C)C)NC(=O)[C@@H](NC(=O)[C@H](Cc1c[nH]c2ccccc12)NC(=O)[C@H](CCC(=O)O)NC(=O)[C@H](CCCCN)NC(=O)[C@H](CC(=O)O)NC(C)=O)[C@@H](C)CC)[C@@H](C)CC)[C@@H](C)CC)C(C)C)C(=O)N[C@@H](Cc1ccc(O)cc1)C(=O)N[C@@H](CCC(=O)O)C(=O)N[C@@H](Cc1ccccc1)C(=O)N[C@@H](CCSC)C(=O)N[C@@H](CCCCN)C(=O)N[C@@H](CCCCN)C(=O)NCC(=O)NCCOCCOCCOCCOCCOCCOCCOCCOCCC(=O)NCCOCCOCCOCCOCCOCCOCCOCCOCCNC(=O)[C@@H]1CSCC(=O)N[C@@H](C)C(=O)N[C@@H](CO)C(=O)N[C@@H](Cc2ccc(O)cc2)C(=O)N[C@@H](Cc2c[nH]cn2)C(=O)N[C@@H](CC(C)C)C(=O)NCC(=O)N[C@@H](CCC(=O)O)C(=O)N[C@@H](CC(C)C)C(=O)N[C@@H](C(C)C)C(=O)N[C@@H](Cc2c[nH]c3ccccc23)C(=O)N2Cc3ccccc3C[C@H]2C(=O)NC(C)(C)C(=O)N1` [Compound 160], for which the EC50 is 1.4 nM and 2.2 nM.
As for `CC[C@H](C)[C@H](NC(=O)[C@H](CC(C)C)NC(=O)[C@H](CC(=O)O)NC(=O)[C@H](CO)NC(=O)[C@@H](NC(=O)[C@H](CCCNC(=N)N)NC(=O)[C@H](CCSC)NC(=O)[C@H](CO)NC(=O)[C@H](C)NC(=O)[C@H](CCC(=O)O)NC(=O)[C@H](C)NC(=O)[C@H](Cc1c[nH]cn1)NC(=O)CNC(=O)[C@H](CC(C)C)NC(=O)[C@H](CCC(=O)O)NC(=O)[C@H](CC(=O)O)NC(=O)[C@H](CC(C)C)NC(=O)[C@H](CC(C)C)NC(=O)[C@H](CCCNC(=N)N)NC(=O)[C@H](CCSC)NC(=O)[C@@H](NC(=O)[C@H](CCC(=O)O)NC(=O)[C@H](Cc1ccc(O)cc1)NC(=O)[C@@H](NC(=O)[C@H](CCCCN)NC(=O)[C@H](CCC(N)=O)NC(=O)[C@H](CC(C)C)NC(=O)[C@@H](NC(=O)[C@H](Cc1c[nH]c2ccccc12)NC(=O)[C@H](CCC(=O)O)NC(=O)[C@H](CCCCN)NC(=O)[C@H](CC(=O)O)NC(C)=O)[C@@H](C)CC)[C@@H](C)CC)[C@@H](C)CC)C(C)C)C(=O)N[C@@H](Cc1ccc(O)cc1)C(=O)N[C@@H](CCC(=O)O)C(=O)NCCOCCOCCOCCOCCOCCOCCOCCOCCC(=O)NCCOCCOCCOCCOCCOCCOCCOCCOCCC(=O)N[C@@H](CC(=O)O)C(=O)N[C@H]1CSSC[C@@H](C(=O)N[C@H](C(N)=O)[C@@H](C)O)NC(=O)[C@H](Cc2c[nH]c3ccccc23)NC(=O)[C@H](C(C)C)NC(=O)[C@H](CC(C)C)NC(=O)[C@H](CCC(=O)O)NC(=O)CNC(=O)[C@H](CC(C)C)NC(=O)[C@H](Cc2c[nH]cn2)NC(=O)[C@H](Cc2c[nH]c3ccccc23)NC(=O)[C@H](C)NC1=O` [Compound 154], the figure is above 100 nM; as for `CC[C@H](C)[C@H](NC(=O)[C@H](Cc1c[nH]c2ccccc12)NC(=O)[C@H](CCC(=O)O)NC(=O)[C@H](CCCCN)NC(=O)[C@H](CC(=O)O)NC(C)=O)C(=O)N[C@@H](CC(C)C)C(=O)N[C@@H](CCC(N)=O)C(=O)N[C@@H](CCCCN)C(=O)N[C@H](C(=O)N[C@@H](Cc1ccc(O)cc1)C(=O)N[C@@H](CCC(=O)O)C(=O)N[C@H](C(=O)N[C@@H](CCSC)C(=O)N[C@@H](CCCNC(=N)N)C(=O)N[C@@H](CC(C)C)C(=O)N[C@@H](CC(C)C)C(=O)N[C@@H](CC(=O)O)C(=O)N[C@@H](CCC(=O)O)C(=O)N[C@@H](CC(C)C)C(=O)NCC(=O)N[C@@H](Cc1c[nH]cn1)C(=O)N[C@@H](C)C(=O)N[C@@H](CCC(=O)O)C(=O)N[C@@H](C)C(=O)N[C@@H](CO)C(=O)NCCOCCOCCOCCOCCOCCOCCOCCOCCC(=O)NCCOCCOCCOCCOCCOCCOCCOCCOCCC(=O)N[C@@H](CC(=O)O)C(=O)N[C@H]1CSSC[C@@H](C(=O)N[C@H](C(N)=O)[C@@H](C)O)NC(=O)[C@H](Cc2c[nH]c3ccccc23)NC(=O)[C@H](C(C)C)NC(=O)[C@H](CC(C)C)NC(=O)[C@H](CCC(=O)O)NC(=O)CNC(=O)[C@H](CC(C)C)NC(=O)[C@H](Cc2c[nH]cn2)NC(=O)[C@H](Cc2c[nH]c3ccccc23)NC(=O)[C@H](C)NC1=O)[C@@H](C)CC)[C@@H](C)CC` [Compound 152], above 100 nM; as for `CC[C@H](C)[C@H](NC(C)=O)C(=O)N[C@@H](Cc1ccc(O)cc1)C(=O)N[C@@H](CCC(=O)O)C(=O)N[C@H](C(=O)N[C@@H](CCSC)C(=O)N[C@@H](CCCNC(=N)N)C(=O)N[C@@H](CC(C)C)C(=O)N[C@@H](CC(C)C)C(=O)N[C@@H](CC(=O)O)C(=O)N[C@@H](CCC(=O)O)C(=O)N[C@@H](CC(C)C)C(=O)NCC(=O)N[C@@H](Cc1c[nH]cn1)C(=O)N[C@@H](C)C(=O)N[C@@H](CCC(=O)O)C(=O)N[C@@H](C)C(=O)N[C@@H](CO)C(=O)N[C@@H](CCSC)C(=O)N[C@@H](CCCNC(=N)N)C(=O)N[C@H](C(=O)N[C@@H](CO)C(=O)N[C@@H](CC(=O)O)C(=O)N[C@@H](CC(C)C)C(=O)N[C@H](C(=O)N[C@@H](Cc1ccc(O)cc1)C(=O)N[C@@H](CCC(=O)O)C(=O)N[C@@H](Cc1ccccc1)C(=O)N[C@@H](CCSC)C(=O)N[C@@H](CCCCN)C(=O)N[C@@H](CCCCN)C(=O)NCC(=O)NCCOCCOCCOCCOCCOCCOCCOCCOCCC(=O)NCCOCCOCCOCCOCCOCCOCCOCCOCCC(=O)N[C@@H](CC(=O)O)C(=O)N[C@H]1CSSC[C@@H](C(=O)N[C@H](C(N)=O)[C@@H](C)O)NC(=O)[C@H](Cc2c[nH]c3ccccc23)NC(=O)[C@H](C(C)C)NC(=O)[C@H](CC(C)C)NC(=O)[C@H](CCC(=O)O)NC(=O)CNC(=O)[C@H](CC(C)C)NC(=O)[C@H](Cc2c[nH]cn2)NC(=O)[C@H](Cc2c[nH]c3ccccc23)NC(=O)[C@H](C)NC1=O)[C@@H](C)CC)C(C)C)[C@@H](C)CC` [Compound 156], above 100 nM.
As for `CC[C@H](C)[C@H](NC(=O)[C@H](CC(C)C)NC(=O)[C@H](CC(=O)O)NC(=O)[C@H](CO)NC(=O)[C@@H](NC(=O)[C@H](CCCNC(=N)N)NC(=O)[C@H](CCSC)NC(=O)[C@H](CO)NC(=O)[C@H](C)NC(=O)[C@H](CCC(=O)O)NC(=O)[C@H](C)NC(=O)[C@H](Cc1c[nH]cn1)NC(=O)CNC(=O)[C@H](CC(C)C)NC(=O)[C@H](CCC(=O)O)NC(=O)[C@H](CC(=O)O)NC(=O)[C@H](CC(C)C)NC(=O)[C@H](CC(C)C)NC(=O)[C@H](CCCNC(=N)N)NC(=O)[C@H](CCSC)NC(=O)[C@@H](NC(=O)[C@H](CCC(=O)O)NC(=O)[C@H](Cc1ccc(O)cc1)NC(=O)[C@@H](NC(=O)[C@H](CCCCN)NC(=O)[C@H](CCC(N)=O)NC(=O)[C@H](CC(C)C)NC(=O)[C@@H](NC(=O)[C@H](Cc1c[nH]c2ccccc12)NC(=O)[C@H](CCC(=O)O)NC(=O)[C@H](CCCCN)NC(=O)[C@H](CC(=O)O)NC(=O)CCOCCOCCOCCOCCNC(=O)CCCC[C@@H]1SC[C@@H]2NC(=O)N[C@@H]21)[C@@H](C)CC)[C@@H](C)CC)[C@@H](C)CC)C(C)C)C(=O)N[C@@H](Cc1ccc(O)cc1)C(=O)N[C@@H](CCC(=O)O)C(=O)N[C@@H](Cc1ccccc1)C(=O)N[C@@H](CCSC)C(=O)N[C@@H](CCCCN)C(=O)N[C@@H](CCCCN)C(=O)NCC(=O)O` [Compound 209], the EC50 is 1.1 nM.
As for `CC[C@H](C)[C@H](NC(=O)[C@H](CC(C)C)NC(=O)[C@H](CC(=O)O)NC(=O)[C@H](CO)NC(=O)[C@@H](NC(=O)[C@H](CCCNC(=N)N)NC(=O)[C@H](CCSC)NC(=O)[C@H](CO)NC(=O)[C@H](C)NC(=O)[C@H](CCC(=O)O)NC(=O)[C@H](C)NC(=O)[C@H](Cc1c[nH]cn1)NC(=O)CNC(=O)[C@H](CC(C)C)NC(=O)[C@H](CCC(=O)O)NC(=O)[C@H](CC(=O)O)NC(=O)[C@H](CC(C)C)NC(=O)[C@H](CC(C)C)NC(=O)[C@H](CCCNC(=N)N)NC(=O)[C@H](CCSC)NC(=O)[C@@H](NC(=O)[C@H](CCC(=O)O)NC(=O)[C@H](Cc1ccc(O)cc1)NC(=O)[C@@H](NC(=O)[C@H](CCCCN)NC(=O)[C@H](CCC(N)=O)NC(=O)[C@H](CC(C)C)NC(=O)[C@@H](NC(=O)[C@H](Cc1c[nH]c2ccccc12)NC(=O)[C@H](CCC(=O)O)NC(=O)[C@H](CCCCN)NC(=O)[C@H](CC(=O)O)NC(C)=O)[C@@H](C)CC)[C@@H](C)CC)[C@@H](C)CC)C(C)C)C(=O)N[C@@H](Cc1ccc(O)cc1)C(=O)N[C@@H](CCC(=O)O)C(=O)N[C@@H](Cc1ccccc1)C(=O)N[C@@H](CCSC)C(=O)N[C@@H](CCCCN)C(=O)N[C@@H](CCCCN)C(=O)NCC(=O)NCCOCCOCCOCCOCCOCCOCCOCCOCCNC(=O)[C@@H]1CSCC(=O)N[C@@H](C)C(=O)N[C@@H](CO)C(=O)N[C@@H](Cc2ccc(O)cc2)C(=O)N[C@@H](Cc2c[nH]cn2)C(=O)N[C@@H](CC(C)C)C(=O)NCC(=O)N[C@@H](CCC(=O)O)C(=O)N[C@@H](CC(C)C)C(=O)N[C@@H](C(C)C)C(=O)N[C@@H](Cc2c[nH]c3ccccc23)C(=O)N2Cc3ccccc3C[C@H]2C(=O)NC(C)(C)C(=O)N1` [Compound 161], the figure is 2.2 nM.

By EC50 is commonly meant the concentration that produces a half-maximal response.
